Values of other authors as cited in US10369118B2, “Method of reducing scarring” (Cole Research & Design, Inc., priority 2013, dated 2019).

Columns and labels:
keratinocytes = settings: appear to be cytotoxic

SMILES: Oc1ccc(/C=C/c2cc(O)cc(O)c2)cc1 [resveratrol, trans-3,4′,5-trihydroxystilbene]
- concentrations cytotoxic to keratinocytes (keratinocytes): above 100 micromoles/liter
- solubility in water: very low solubility
